What was measured:
Jurkat cells = assay: Jurkat IL-2 assay; format: cell-based; conditions: Homo sapiens, anti-CD3/CD28 stimulation overnight, IL-2 level
Description: Jurkat cells (ATCC) were cultured in RPMI-1640 medium supplemented with 10% FBS. In a 96-well plate, −250,000 cells in 130 uL were added to each assay well. Ten microliter compound solution (5 uM to 2.3 nM, 8 points with 3-fold dilution) were added to cells in each well and incubated for 60 minutes at 37° C. Then 10 uL anti-CD3/CD28 antibody (Catalog #10991, Stemcell) were added and incubated overnight at 37° C. After the incubation, 16 uL supernatants were transferred into a new 384-well white assay plate for cytokine analysis. IL-2 was quantified using Human IL-2 kit (Catalog #62HIL02PEG, Cisbio) as described in the manufacturer manual.
(§1) X is log of compound concentration, Y is the IL-2 concentration, increasing as X increases.

PBMC = assay: Human PBMC IL-2 assay; format: cell-based; conditions: anti-CD3/CD28 stimulation overnight, IL-2 level
Description: PBMC (frozen) obtained from health donor were thawed in RPMI-1640 medium with 10% FBS and incubated for 4 h at 37° C. In a 96-well plate, −200,000 PBMC cells in 160 uL were added to each assay well. Ten microliter compound solution (10 uM to 0.6 nM, 8 points with 4-fold dilution) were added to cells in each well and incubated for 60 minutes at 37° C. Then 30 uL anti-CD3/CD28 antibody (Catalog #10991, Stemcell) were added to cells and incubated overnight at 37° C. After the incubation, 16 uL supernatants were transferred into a new 384-well white assay plate for cytokine analysis. IL-2 level was quantified using Human IL-2 kit (Catalog #62HIL02PEG, Cisbio) as described in the manufacturer manual.
as §1

SMILES: CCC(c1ccc(F)c(F)c1)N1C[C@H]2COc3c(c4nc(C#N)ccc4n(C)c3=O)N2C[C@H]1CC (single isomer, unassigned) [Compound 183]
- EC50 (Jurkat cells): 77 nM
- EC50 (PBMC): 156 nM

SMILES: CC[C@H]1CN([C@@H](CC)c2nc(C(F)(F)F)no2)[C@H](CC)CN1c1nc2nncn2c2ccc(C#N)nc12 (stereo in doubt) [Compound 135]
- EC50 (Jurkat cells): 70 nM
- EC50 (PBMC): 69 nM

SMILES: CC[C@H]1CN([C@@H](CC)c2ccc(C(F)(F)F)cc2C)[C@H](CC)CN1c1nc2nncn2c2ccc(C#N)nc12 (stereo in doubt) [Compound 137]
- EC50 (Jurkat cells): 248 nM
- EC50 (PBMC): 96 nM

SMILES: Cn1c(=O)nc(N2CCC[C@]3(CC2)CC(c2ccc(OC(F)(F)F)cc2)=NO3)c2nc(C#N)ccc21 (stereo in doubt) [Compound 139]
- EC50 (Jurkat cells): 251 nM
- EC50 (PBMC): 869 nM

SMILES: Cn1c(=O)nc(N2CCC[C@@]3(CC2)CC(c2ccc(OC(F)(F)F)cc2)=NO3)c2nc(C#N)ccc21 (stereo in doubt) [Compound 140]
- EC50 (Jurkat cells): 598 nM
- EC50 (PBMC): 259 nM

SMILES: CC[C@@H]1CN2c3c(c(=O)n(C)c4ccc(C#N)nc34)OC[C@@H]2CN1[C@H](CC)c1ccc(C(F)(F)F)cc1F (stereo in doubt) [Compound 143]
- EC50 (Jurkat cells): 483 nM
- EC50 (PBMC): 178 nM

SMILES: CC[C@@H]1CN2c3c(c(=O)n(C)c4ccc(C#N)nc34)OC[C@@H]2CN1[C@@H](CC)c1ccc(C(F)(F)F)cc1F (stereo in doubt) [Compound 144]
- EC50 (Jurkat cells): 76 nM
- EC50 (PBMC): 61 nM

SMILES: CC[C@@H]1CN2c3c(c(=O)n(C)c4ccc(C#N)nc34)OC[C@@H]2CN1[C@@H](CC)c1c(F)cc(F)cc1F (stereo in doubt) [Compound 147]
- EC50 (Jurkat cells): 55 nM
- EC50 (PBMC): 96 nM

SMILES: CC[C@@H]1CN2c3c(c(=O)n(C)c4ccc(C#N)nc34)OC[C@@H]2CN1[C@H](CC)c1cccc(C(F)(F)F)c1 (stereo in doubt) [Compound 148]
- EC50 (Jurkat cells): 209 nM
- EC50 (PBMC): 582 nM

SMILES: CC[C@@H]1CN2c3c(c(=O)n(C)c4ccc(C#N)nc34)OC[C@@H]2CN1[C@@H](CC)c1cccc(C(F)(F)F)c1 (stereo in doubt) [Compound 149]
- EC50 (Jurkat cells): 76 nM
- EC50 (PBMC): 162 nM

SMILES: CCC[C@@H](c1ccc(C(F)(F)F)cc1)N1C[C@H]2COc3c(c4nc(C#N)ccc4n(C)c3=O)N2C[C@H]1CC (stereo in doubt) [Compound 153]
- EC50 (Jurkat cells): 43 nM
- EC50 (PBMC): 85 nM

SMILES: CC[C@@H]1CN2c3c(c(=O)n(C)c4ccc(C#N)nc34)OC[C@@H]2CN1[C@H](c1ccc(Cl)cc1)c1ccccn1 (stereo in doubt) [Compound 156]
- EC50 (Jurkat cells): 124 nM
- EC50 (PBMC): 83 nM

SMILES: CCC[C@@H]1CN2c3c(c(=O)n(C)c4ccc(C#N)nc34)OC[C@@H]2CN1[C@H](C)c1ccc(C(F)(F)F)cc1 (stereo in doubt) [Compound 158]
- EC50 (Jurkat cells): 277 nM
- EC50 (PBMC): 579 nM

SMILES: CC[C@@H]1CN2c3c(c(=O)n(C)c4ccc(C#N)nc34)OC[C@@H]2CN1[C@@H](c1ccc(F)cc1)c1nc(C2CC2)no1 (stereo in doubt) [Compound 159]
- EC50 (Jurkat cells): 12 nM
- EC50 (PBMC): 41 nM

SMILES: CC[C@@H]1CN2c3c(c(=O)n(C)c4ccc(C#N)nc34)OC[C@@H]2CN1[C@H](c1ccc(F)cc1)c1nc(C2CC2)no1 (stereo in doubt) [Compound 160]
- EC50 (Jurkat cells): 21 nM
- EC50 (PBMC): 75 nM

SMILES: CC[C@@H]1CN2c3c(c(=O)n(C)c4ccc(C#N)nc34)OC[C@@H]2CN1[C@@H](CC)c1ccc(C#N)cc1 (stereo in doubt) [Compound 161]
- EC50 (Jurkat cells): 26 nM
- EC50 (PBMC): 53 nM

SMILES: CC[C@@H]1CN2c3c(c(=O)n(C)c4ccc(C#N)nc34)OC[C@@H]2CN1[C@H](CC)c1ccc(C#N)cc1 (stereo in doubt) [Compound 162]
- EC50 (Jurkat cells): 100 nM
- EC50 (PBMC): 786 nM

SMILES: CCC[C@@H]1CN2c3c(c(=O)n(C)c4ccc(C#N)nc34)OC[C@@H]2CN1[C@@H](C)c1ccc(OCC2CC2)cc1F (stereo in doubt) [Compound 163]
- EC50 (PBMC): 340 nM

SMILES: CCC[C@@H]1CN2c3c(c(=O)n(C)c4ccc(C#N)nc34)OC[C@@H]2CN1[C@H](C)c1ccc(OCC2CC2)cc1F (stereo in doubt) [Compound 164]
- EC50 (PBMC): 233 nM

SMILES: CC[C@H]1CN([C@H](c2ccc(SC(F)(F)F)cc2)C2CC2)[C@H](CC)CN1c1nc2nncn2c2ccc(C#N)nc12 (stereo in doubt) [Compound 168]
- EC50 (Jurkat cells): 42 nM
- EC50 (PBMC): 32 nM

SMILES: CC[C@@H]1CN2c3c(c(=O)n(C)c4ccc(C#N)nc34)OC[C@@H]2CN1[C@@H](CC)c1c(F)ccc(F)c1F (stereo in doubt) [Compound 170]
- EC50 (Jurkat cells): 246 nM
- EC50 (PBMC): 186 nM

SMILES: CC[C@@H]1CN2c3c(c(=O)n(C)c4ccc(C#N)nc34)OC[C@@H]2CN1[C@H](CC)c1c(F)ccc(F)c1F (stereo in doubt) [Compound 171]
- EC50 (PBMC): 1250 nM

SMILES: CC[C@@H]1CN2c3c(c(=O)n(C)c4ccc(C#N)nc34)OC[C@@H]2CN1[C@@H](CC)c1ccc(F)cc1F (stereo in doubt) [Compound 174]
- EC50 (Jurkat cells): 13 nM
- EC50 (PBMC): 25 nM

SMILES: CC[C@H](c1ccc(C(F)(F)F)cc1)N1C[C@H]2COc3c(c4nc(C#N)ccc4n(C)c3=O)N2C[C@H]1C (stereo in doubt) [Compound 178]
- EC50 (PBMC): 299 nM

SMILES: CC[C@@H](c1ccc(C(F)(F)F)cc1)N1C[C@H]2COc3c(c4nc(C#N)ccc4n(C)c3=O)N2C[C@H]1C (stereo in doubt) [Compound 179]
- EC50 (Jurkat cells): 29 nM
- EC50 (PBMC): 58 nM

SMILES: CC[C@@H]1CN2c3c(c(=O)n(C)c4ccc(C#N)nc34)OC[C@@H]2CN1[C@H](CC)c1ccc(F)c(F)c1 (stereo in doubt) [Compound 182]
- EC50 (PBMC): 1880 nM

SMILES: CC[C@@H]1CN2c3c(c(=O)n(C)c4ccc(C#N)nc34)OC[C@@H]2CN1[C@H](CC)c1ccc(S(C)(=O)=O)cc1 (stereo in doubt) [Compound 185]
- EC50 (PBMC): 7230 nM

SMILES: CC[C@@H]1CN2c3c(c(=O)n(C)c4ccc(C#N)nc34)OC[C@@H]2CN1[C@@H](CC)c1ccc(C(F)(F)F)cn1 (stereo in doubt) [Compound 186]
- EC50 (Jurkat cells): 13 nM
- EC50 (PBMC): 23 nM

SMILES: CC[C@@H]1CN2c3c(c(=O)n(C)c4ccc(C#N)nc34)OC[C@@H]2CN1[C@H](CC)c1ccc(C(F)(F)F)cn1 (stereo in doubt) [Compound 187]
- EC50 (PBMC): 322 nM

SMILES: CC[C@H]1CN([C@@H](CC)c2ccc(C3CC3)nc2)[C@H](CC)CN1c1nc2nncn2c2ccc(C#N)nc12 (stereo in doubt) [Compound 188]
- EC50 (PBMC): 577 nM

SMILES: CC[C@H]1CN([C@H](CC)c2ccc(C3CC3)nc2)[C@H](CC)CN1c1nc2nncn2c2ccc(C#N)nc12 (stereo in doubt) [Compound 189]
- EC50 (PBMC): 276 nM

SMILES: CC[C@H]1CN([C@@H](CC)c2ccc(F)cc2F)[C@H](CC)CN1c1nc2nncn2c2ccc(C#N)nc12 (stereo in doubt) [Compound 194]
- EC50 (Jurkat cells): 104 nM
- EC50 (PBMC): 79 nM

SMILES: CC[C@H]1CN([C@H](CC)c2ccc(F)cc2F)[C@H](CC)CN1c1nc2nncn2c2ccc(C#N)nc12 (stereo in doubt) [Compound 195]
- EC50 (Jurkat cells): 1110 nM
- EC50 (PBMC): 2200 nM

SMILES: CC[C@@H]1CN2c3c(c(=O)n(C)c4ccc(C#N)nc34)OC[C@@H]2CN1[C@H](CC)c1ccc(F)c(Cl)c1 (stereo in doubt) [Compound 196]
- EC50 (Jurkat cells): 1280 nM
- EC50 (PBMC): 846 nM

SMILES: CC[C@H]1CN([C@@H](CC)c2ccc(F)c(F)c2)[C@H](CC)CN1c1nc2nncn2c2ccc(C#N)nc12 (stereo in doubt) [Compound 200]
- EC50 (Jurkat cells): 86 nM
- EC50 (PBMC): 42 nM

SMILES: CC[C@H]1CN([C@H](CC)c2ccc(F)c(F)c2)[C@H](CC)CN1c1nc2nncn2c2ccc(C#N)nc12 (stereo in doubt) [Compound 201]
- EC50 (Jurkat cells): 822 nM
- EC50 (PBMC): 520 nM

SMILES: CC[C@H]1CN([C@H](c2ccc(C(F)(F)F)cc2)C(C)C)[C@H](CC)CN1c1nc2nncn2c2ccc(C#N)nc12 (stereo in doubt) [Compound 204]
- EC50 (Jurkat cells): 202 nM
- EC50 (PBMC): 107 nM

SMILES: CC[C@H](c1ccc(F)c(Cl)c1)N1C[C@H]2COc3c(c4nc(C#N)ccc4n(C)c3=O)N2C[C@H]1C (stereo in doubt) [Compound 237]
- EC50 (PBMC): 1330 nM

SMILES: CC[C@@H]1CN2c3c(c(=O)n(C4CCC4)c4ccc(C#N)nc34)OC[C@@H]2CN1[C@@H](CC)c1ccc(C(F)(F)F)cc1 (stereo in doubt) [Compound 263]
- EC50 (Jurkat cells): 582 nM

SMILES: C[C@@H]1CN2c3c(c(=O)n(C)c4ccc(C#N)nc34)OC[C@@H]2CN1[C@@H](C)c1ccc(Cl)cc1Cl (stereo in doubt) [Compound 268]
- EC50 (PBMC): 890 nM

SMILES: Cc1ccc2oc(C3(C)CCN(c4c(C#N)c(=O)n(C)c5ccc(C#N)nc45)CC3)nc2c1 [Compound 7]
- EC50 (PBMC): 372 nM

SMILES: C[C@H]1CC2(CCN1c1nc(=O)n(C)c3ccc(C#N)nc13)CC(c1ccc(OC(F)(F)F)cc1)=NO2 (stereo partly shown) [Compound 50]
- EC50 (Jurkat cells): 435 nM

SMILES: CC[C@@H]1CN2c3c(c(=O)n(C)c4ccc(C#N)nc34)OC[C@@H]2CN1c1nc2cc(C)ccc2o1 [Compound 165]
- EC50 (PBMC): 375 nM

SMILES: CC[C@H]1CN2[C@@H](COC[C@@H]2c2ccc(C(F)(F)F)cc2)CN1c1nc2nncn2c2ccc(C#N)nc12 [Compound 192]
- EC50 (PBMC): 3050 nM

SMILES: CC[C@@H]1CN2c3c(c(=O)n(C)c4ccc(C#N)nc34)N(C)C[C@@H]2CN1[C@H](CC)c1ccc(C(F)(F)F)cc1 [Compound 220]
- EC50 (PBMC): 3840 nM
